Reference: patent US8163909B2, “Substituted hydroxyethyl amine compounds as beta-secretase modulators and methods of use” (Amgen Inc., priority 2007, dated 2012)
Read-outs that look alike come from different tables or passages of the source.

What was measured:
CYP3A4 (CYP3A) = CYP3A4 (CYP3A) (Homo sapiens, UniProt P08684); test: in vitro; conditions: microsomes, pH 7.4;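 further: inhibition of CYP3A-mediated 1-hydroxymidazolam formation after 10 min incubation with NADPH, quantified by HPLC MS relative to metabolite produced without test compound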
[1] = Microsomal stability assay, human liver microsomes;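 further: pooled human liver microsomes at 0.25 mg/mL with 1 µM compound and NADPH at 37 °C, pH 7.4, for 30 min, unchanged parent quantified by LC-MS/MS against the 0 min sample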
[2] = Microsomal stability assay, rat liver microsomes;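 further: rat liver microsomes (0.25 mg/mL) with about 1 µM compound plus 1 mM NADPH, pH 7.4, 37 °C for 30 min, parent left measured by LC-MS/MS against 0 min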
CYP2D6 = CYP2D6 (Homo sapiens, UniProt P10635); test: CYP2D6 inhibition assay (bufuralol, pooled human liver microsomes)
[3] = molecular target: Beta Secretase enzyme (BACE) (Homo sapiens, UniProt P56817); test: In vitro enzymatic BACE FRET (fluorescence resonance energy transfer) assay; assay type: biochemical;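 further: fluorescence read after 1 h with 50 nM quenched peptide substrate spanning the BACE cleavage site, in pH 4.2 acetate buffer containing 10% DMSO and nonionic detergent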
[4] = system: Aβ40 in conditioned medium of cells stably expressing Amyloid Precursor Protein (APP); test: In vitro BACE cell-based assay (Aβ40 in conditioned medium, sandwich ELISA); conditions: Homo sapiens;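 further: compounds added as a dilution series, secreted peptide quantified by europium time-resolved fluorescence readout, potency fitted from percent of control versus compound concentration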
[5] = 2D6 IC50 (uM), CYP enzyme inhibition
[6] = BACE enzyme assay, read-out: BACE1 FRET assay
[7] = HEK293, HEK cells, read-out: HEK cell assay
[8] = read-out: BACE1 FRET assay (IC50)
[9] = HEK293, HEK cells, read-out: HEK cell assay (IC50)
[10] = 2D6 IC50, CYP enzyme inhibition
[11] = Table 2, read-out: BACE1 FRET assay
[12] = HEK293, Table 2, HEK cells, read-out: HEK cell assay

CYP2D6, sequence (P10635 whole entry): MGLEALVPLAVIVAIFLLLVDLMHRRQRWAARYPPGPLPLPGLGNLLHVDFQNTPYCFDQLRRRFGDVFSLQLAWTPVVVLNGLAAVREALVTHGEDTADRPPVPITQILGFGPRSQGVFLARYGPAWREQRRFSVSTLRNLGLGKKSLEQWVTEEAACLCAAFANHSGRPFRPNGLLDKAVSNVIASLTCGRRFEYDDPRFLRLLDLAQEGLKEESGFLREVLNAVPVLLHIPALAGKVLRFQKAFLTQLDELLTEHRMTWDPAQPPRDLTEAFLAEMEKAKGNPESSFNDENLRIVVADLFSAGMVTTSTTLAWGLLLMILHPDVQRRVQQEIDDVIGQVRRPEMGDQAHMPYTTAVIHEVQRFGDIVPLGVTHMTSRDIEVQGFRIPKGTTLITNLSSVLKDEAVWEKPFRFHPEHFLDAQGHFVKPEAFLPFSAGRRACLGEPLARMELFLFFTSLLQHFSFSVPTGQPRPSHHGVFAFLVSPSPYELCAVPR
Beta Secretase enzyme (BACE), sequence (P56817 46-501): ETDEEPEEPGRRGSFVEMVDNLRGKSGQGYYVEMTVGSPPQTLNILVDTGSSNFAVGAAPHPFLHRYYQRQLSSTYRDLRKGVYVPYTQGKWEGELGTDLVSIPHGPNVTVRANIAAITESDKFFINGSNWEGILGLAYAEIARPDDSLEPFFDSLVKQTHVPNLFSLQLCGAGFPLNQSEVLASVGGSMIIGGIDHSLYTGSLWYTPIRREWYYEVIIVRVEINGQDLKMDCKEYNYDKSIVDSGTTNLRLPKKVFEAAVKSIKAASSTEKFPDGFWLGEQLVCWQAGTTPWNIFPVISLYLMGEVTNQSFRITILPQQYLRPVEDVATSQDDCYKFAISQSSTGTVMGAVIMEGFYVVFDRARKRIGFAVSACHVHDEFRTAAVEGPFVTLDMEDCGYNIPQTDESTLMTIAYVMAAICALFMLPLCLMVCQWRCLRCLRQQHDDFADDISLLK
CYP3A4 (CYP3A), sequence (P08684 2-503): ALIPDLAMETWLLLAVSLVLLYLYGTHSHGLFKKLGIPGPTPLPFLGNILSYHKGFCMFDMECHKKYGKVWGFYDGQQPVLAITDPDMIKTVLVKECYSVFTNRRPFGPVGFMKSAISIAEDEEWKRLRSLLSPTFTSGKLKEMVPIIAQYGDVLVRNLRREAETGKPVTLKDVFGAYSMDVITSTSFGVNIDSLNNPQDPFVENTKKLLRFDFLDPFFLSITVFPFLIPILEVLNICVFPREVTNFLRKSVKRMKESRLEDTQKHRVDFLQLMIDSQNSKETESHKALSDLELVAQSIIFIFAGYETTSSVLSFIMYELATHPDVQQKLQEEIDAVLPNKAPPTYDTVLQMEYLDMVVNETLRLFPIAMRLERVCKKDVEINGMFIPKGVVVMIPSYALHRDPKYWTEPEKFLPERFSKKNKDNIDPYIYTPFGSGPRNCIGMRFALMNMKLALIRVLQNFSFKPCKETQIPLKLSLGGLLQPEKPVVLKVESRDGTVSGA

| SMILES | IC50 (CYP3A4 (CYP3A)) [µM] | HLM ([1]; human liver microsomal data) [µL/min/mg] | RLM ([2]; rat liver microsomal data) [µL/min/mg] | IC50 (CYP2D6; [5]) [µM] | IC50 [3, 6] [µM] | IC50 [4, 7] [µM] | HLM ([1]; human liver microsomes) [µL/min/mg] | RLM ([2]; rat liver microsomes) [µL/min/mg] | IC50 (CYP2D6; 2D6 IC50, CYP2D6 inhibition) [µM] | IC50 [3, 8] [µM] | IC50 [4, 9] [µM] | IC50 (CYP2D6; [10]) [µM] | IC50 [3, 11] [µM] | IC50 [4, 12] [µM] |
| --- | --- | --- | --- | --- | --- | --- | --- | --- | --- | --- | --- | --- | --- | --- |
| CC(C)(C)Cc1cnc2c(c1)[C@@H](NC[C@@H](O)[C@H](Cc1ccc3c(c1)OCO3)NC(=O)C1CCO1)CC1(CCC1)O2 (stereo partly drawn) [compound 503, N-((1S,2R)-1-(1,3-benzodioxol-5-ylmethyl)-3-(((4′S)-6′-(2,2-dimethylpropyl)-3′,4′-dihydrospiro[cyclobutane-1,2′-pyrano[2,3-b]pyridin]-4′-yl)amino)-2-hydroxypropyl)-2-oxetanecarboxamide] | 0.2 | 23 | 130 | 3.3 | 0.021 | 0.017 | – | – | – | – | – | – | – | – |
| COCC(=O)N[C@@H](Cc1ccc2c(c1)OCO2)[C@H](O)CN[C@H]1CC2(CCC2)Oc2c1cc(CC(C)C)nc2Cl [compound 656] | 0.1 | – | – | – | – | – | 131 | 180 | 5.3 | 0.051 | 0.774 | – | – | – |
| COCC(=O)N[C@@H](Cc1ccccc1)[C@H](O)CN[C@H]1CC2(CCC2)Oc2ccc(C[C@H](C)F)cc21 [compound 611] | 18.4 | – | – | – | – | – | 644 | 775 | 1.2 | 0.103 | 0.116 | – | – | – |
| CC(C)(C)Cc1cnc2c(c1)[C@@H](NC[C@@H](O)[C@H](Cc1cccc(C#N)c1)NC(=O)[C@H]1CCCO1)CC1(CC(F)(F)C1)O2 [compound 472] | 0.8 | 736 | 775 | – | – | – | – | – | – | – | – | 7.1 | 0.005 | 0.015 |
| CC(=O)N[C@@H](Cc1cccc(-c2ccncc2)c1)[C@H](O)CN[C@H]1CC2(CCC2)Oc2ncc(CC(C)(C)C)cc21 [compound 616, N-((1S,2R)-3-(((4′S)-6′-(2,2-dimethylpropyl)-3′,4′-dihydrospiro[cyclobutane-1,2′-pyrano[2,3-b]pyridin]-4′-yl)amino)-2-hydroxy-1-(3-(4-pyridinyl)benzyl)propyl)acetamide] | 0.16 | – | – | – | – | – | 228 | 96 | 0.3 | 0.017 | 0.01 | – | – | – |
| COCC(=O)N[C@@H](Cc1cc(F)cc(F)c1)[C@H](O)CN[C@@H]1CC2(CCC2)Oc2c1cc(CC(C)(C)C)nc2-c1cnc[nH]1 [compound 509] | 0.1 | 74 | 70 | 2.3 | 0.487 | 0.077 | – | – | – | – | – | – | – | – |
| CO[C@H](C)C(=O)N[C@@H](Cc1cc(F)cc(F)c1)[C@H](O)CN[C@H]1CC2(CCC2)Oc2c(-c3nccs3)cc(CC(C)C)cc21 [compound 459] | 0.4 | 399 | 399 | – | – | – | – | – | – | – | – | 10.2 | 0.004 | 0.046 |
| CO[C@H](C)C(=O)N[C@@H](Cc1ccc2c(c1)OCO2)[C@H](O)CN[C@H]1CC2(CCC2)Oc2nc3c(cc21)[C@H](C(C)C)CO3 [compound 665] | 0.2 | – | – | – | – | – | 61 | 126 | 4 | 0.927 | 0.249 | – | – | – |
| CO[C@H](C)C(=O)N[C@@H](Cc1ccncc1)[C@H](O)CN[C@H]1CC2(CCC2)Oc2ncc(C(F)(F)F)cc21 [compound 653] | 0.6 | – | – | – | – | – | 178 | 114 | 5.8 | 6.74 | > 10 | – | – | – |
| CC(=O)N[C@@H](Cc1cc(F)cc(-c2ccco2)c1)[C@H](O)CN[C@H]1CC2(CCC2)Oc2ccc(CC(C)(C)C)cc21 [compound 646] | 2 | – | – | – | – | – | 326 | 344 | 1.6 | 0.004 | 0.104 | – | – | – |
